Experimental data taken from PMC3320663 (Chemmedchem, 2011).
Read-outs that look alike come from different tables or passages of the source.

Biological target: T1, TbTryS (Trypanosoma brucei, UniProt Q586P2)
T1 sequence (Q586P2 1-627): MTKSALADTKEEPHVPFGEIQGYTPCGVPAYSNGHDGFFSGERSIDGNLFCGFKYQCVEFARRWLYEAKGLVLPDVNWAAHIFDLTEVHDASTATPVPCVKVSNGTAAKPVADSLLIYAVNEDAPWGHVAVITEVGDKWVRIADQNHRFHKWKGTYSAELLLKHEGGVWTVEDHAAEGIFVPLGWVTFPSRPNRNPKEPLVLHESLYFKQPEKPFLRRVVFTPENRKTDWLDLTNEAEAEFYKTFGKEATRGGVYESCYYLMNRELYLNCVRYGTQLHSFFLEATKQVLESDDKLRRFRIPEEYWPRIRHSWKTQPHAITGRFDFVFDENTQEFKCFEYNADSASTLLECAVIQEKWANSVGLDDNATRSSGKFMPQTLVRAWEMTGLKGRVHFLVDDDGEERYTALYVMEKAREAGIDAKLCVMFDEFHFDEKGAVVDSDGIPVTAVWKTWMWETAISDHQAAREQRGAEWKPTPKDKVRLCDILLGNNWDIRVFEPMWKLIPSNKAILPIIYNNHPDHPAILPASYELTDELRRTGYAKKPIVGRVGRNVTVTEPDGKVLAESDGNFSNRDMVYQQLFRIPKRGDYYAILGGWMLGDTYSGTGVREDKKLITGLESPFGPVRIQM
Experiment: Trypanothione synthetase
Format: biochemical
Settings: for LE (ligand efficiency): calculated as −0.6×ln(IC50)/(heavy atom count); for loss in activity (heterocycle at indazole position 3): indazole series, initial compound 60

Row | Molecule | IC50 (TbTryS IC50) | LE (ligand efficiency) | further results
1 | CN1CCN(CCNC(=O)Cn2nc(-c3cccc(F)c3)c3ccccc32)CC1 [Compound 90, 2-(3-(3-Fluorophenyl)-1H-indazol-1-yl)-N-(2-(4-methylpiperazin-1-yl)ethyl)acetamide] | 860 nM | 0.29 | 
2 | CC(C)(C)C(=O)Cn1nc(-c2ccc3ccccc3c2)c2ccccc21 [Compound 64, 3,3-Dimethyl-1-(3-(naphthalen-2-yl)-1H-indazol-1-yl)butan-2-one] | > 100000 nM |  | 
3 | CC(C)(C)C(=O)Cn1nnc(-c2cccc(F)c2)n1 [Compound 17, 1-(5-(3-Fluorophenyl)-2H-tetrazol-2-yl)-3,3-dimethylbutan-2-one] | 1500 nM |  | 
4 | Fc1cccc(-c2nn(Cc3cc(-c4ccccc4)on3)c3ccccc23)c1 [Compound 78, 3-((3-(3-Fluorophenyl)-1H-indazol-1-yl)methyl)-5-phenylisoxazole] | > 100000 nM |  | 
5 | CN(C)C(=O)Cn1nnc(-c2cc(Cl)cc(Cl)c2)n1 [Compound 23, 2-(5-(3,5-Dichlorophenyl)-2H-tetrazol-2-yl)-N,N-dimethylacetamide] | 600 nM |  | 
6 | CC(C)(C)S(=O)(=O)Cc1nn(-c2ccccc2)c2ccccc12 [Compound 72, 3-(tert-Butylsulfonylmethyl)-1-phenyl-1H-indazole] | 220 nM | 0.40 | 
7 | CCN(CC)C(=O)Cn1nc(C(F)(F)F)c2c1CCCC2 [Compound 35, N,N-Diethyl-2-(3-(trifluoromethyl)-4,5,6,7-tetrahydro-1H-indazol-1-yl)acetamide] | 15000 nM |  | TbTryS activity in words: retained some inhibitory activity
8 | O=C(Cn1nc(-c2cccc(F)c2)c2ccccc21)NCCCn1ccnc1 [Compound 81, N-(3-(1H-Imidazol-1-yl)propyl)-2-(3-(3-fluorophenyl)-1H-indazol-1-yl)acetamide] | 350 nM | 0.32 | decrease in potency relative to 84: eight
9 | CC(C)(C)C(=O)Cn1nc(-c2cccc(Cl)c2)c2ccccc21 [Compound 70, 1-(3-(3-Chlorophenyl)-1H-indazol-1-yl)-3,3-dimethylbutan-2-one] | 350 nM | 0.39 | IC50 (TbTryS IC50, values in running text): 354 nM
10 | CN1CCN(CCCNC(=O)Cn2nc(-c3cccc(F)c3)c3ccccc32)CC1 [Compound 80, 2-(3-(3-Fluorophenyl)-1H-indazol-1-yl)-N-(3-(4-methylpiperazin-1-yl)propyl)acetamide] | 830 nM | 0.28 | 
11 | CC(C)(C)C(=O)Cn1nnc(-c2cc(F)cc(F)c2)n1 [Compound 19, 1-(5-(3,5-Difluorophenyl)-2H-tetrazol-2-yl)-3,3-dimethylbutan-2-one] | 1900 nM |  | 
12 | CC(C)(C)C(=O)Cn1nc(-c2ccncc2)c2ccccc21 [Compound 65, 3,3-Dimethyl-1-(3-(pyridin-4-yl)-1H-indazol-1-yl)butan-2-one] | 300 nM |  | 
13 | CC(C)(C)C(=O)Cn1nc(-c2ccco2)c2ccccc21 [Compound 66, 1-(3-(Furan-2-yl)-1H-indazol-1-yl)-3,3-dimethylbutan-2-one] | 1900 nM |  | loss in activity (heterocycle at indazole position 3): 10 fold
14 | CC(C)(C)C(=O)Cn1nc(-c2cccnc2)c2ccccc21 [Compound 67, 1-(3-(3-Pyridyl)-1H-indazol-1-yl)-3,3-dimethylbutan-2-one] | 3000 nM | 0.35 | loss in activity (heterocycle at indazole position 3): 10 fold
15 | CC(C)(C)C(=O)Cn1nc(-c2ccsc2)c2ccccc21 [Compound 68, 3,3-Dimethyl-1-(3-(thiophen-3-yl)-1H-indazol-1-yl)butan-2-one] | 400 nM | 0.42 | 
16 | Cc1cc(Cn2nc(-c3cccc(F)c3)c3ccccc32)no1 [Compound 79, 3-((3-(3-Fluorophenyl)-1H-indazol-1-yl)methyl)-5-methylisoxazole] | > 100000 nM |  | 

Row | Molecule | IC50 (TbTryS IC50) | LE (ligand efficiency) | further results
17 | Cc1nn(-c2ccccc2)nc1CNS(=O)(=O)C(C)(C)C [Compound 42, 2-Methyl-N-((5-methyl-2-phenyl-2H-1,2,3-triazol-4-yl)methyl)propane-2-sulfonamide] | 37000 nM |  | 
18 | N-Methyl-(3-(dimethylamino)propyl)-2-(3-(3-fluorophenyl)-1H-indazol-1-yl)acetamide [Compound 85] |  | 0.35 | IC50 (read-out: TbTryS IC50): 170 nM
19 | CC(C)(C)S(=O)(=O)Cc1nc(-c2ccccc2F)cs1 [Compound 5, 2-((tert-Butylsulfonyl)methyl)-4-(2-fluorophenyl)thiazole] | 1100 nM |  | 
20 | CC(C)(C)OC(=O)N1CCN(CCNC(=O)Cn2nc(-c3cccc(F)c3)c3ccccc32)CC1 [Compound 82, tert-Butyl-4-(2-(2-(3-(3-fluorophenyl)-1H-indazol-1-yl)acetamido)ethyl)piperazine-1-carboxylate] | 2900 nM | 0.22 | 
21 | Fc1cccc(-c2nn(Cc3cccnc3)c3ccccc23)c1 [Compound 76, 3-(3-Fluorophenyl)-1-(pyridin-3-ylmethyl)-1H-indazole] | 4500 nM | 0.32 | 
22 | Fc1cccc(-c2nn(Cc3ccccn3)c3ccccc23)c1 [Compound 75, 3-(3-Fluorophenyl)-1-(pyridin-2-ylmethyl)-1H-indazole] | 2900 nM | 0.33 | 
23 | CC(C)(C)S(=O)(=O)Cn1nc(-c2cccc(F)c2)c2ccccc21 [Compound 74, 1-(tert-Butylsulfonylmethyl)-3-(3-fluorophenyl)-1H-indazole] | 120 nM | 0.40 | 
24 | Cc1ccccc1-c1csc(CS(=O)(=O)C(C)(C)C)n1 [Compound 4, 2-((tert-Butylsulfonyl)methyl)-4-(2-methylphenyl)thiazole] | 3200 nM |  | 
25 | CC(C)(C)S(=O)(=O)Cc1nc(-c2cccc(F)c2)cs1 [Compound 9, 2-(tert-Butylsulfonylmethyl)-4-(3-fluorophenyl)thiazole] | 400 nM |  | 
26 | Cn1ccc2c(-c3nn(CC(=O)C(C)(C)C)c4ccccc34)cccc21 [Compound 63, 3,3-Dimethyl-1-(3-(1-methyl-1H-indol-4-yl)-1H-indazol-1-yl)butan-2-one] | > 100000 nM |  | 
27 | CC(C)(C)C(=O)Cn1nc(-c2cccc3[nH]ccc23)c2ccccc21 [Compound 62, 1-(3-(1H-Indol-4-yl)-1H-indazol-1-yl)-3,3-dimethylbutan-2-one] | 3700 nM |  | 
28 | CN(C)C(=O)Cn1nc(-c2cccc(F)c2)c2ccccc21 [Compound 88, 2-(3-(3-Fluorophenyl)-1H-indazol-1-yl)-N,N-dimethylacetamide] | 110 nM | 0.44 | 
29 | CC(C)Cn1cc(-c2nn(CC(=O)C(C)(C)C)c3ccccc23)cn1 [Compound 69, 1-(3-(1-Isobutyl-1H-pyrazol-4-yl)-1H-indazol-1-yl)-3,3-dimethylbutan-2-one] | > 100000 nM |  | 
30 | CCN(CC)C(=O)Cn1nc(-c2cccc(F)c2)c2ccccc21 [Compound 87, N,N-Diethyl-2-(3-(3-fluorophenyl)-1H-indazol-1-yl)acetamide] | 200 nM | 0.39 | 
31 | CN(C)CCNC(=O)Cn1nc(-c2cccc(F)c2)c2ccccc21 [Compound 83, N-(2-(Dimethylamino)ethyl)-2-(3-(3-fluorophenyl)-1H-indazol-1-yl)acetamide] | 145 nM | 0.38 | 
32 | O=C(Cn1nc(-c2cccc(F)c2)c2ccccc21)NCc1ccc(Cl)cc1 [Compound 86, N-(4-Chlorobenzyl)-2-(3-(3-fluorophenyl)-1H-indazol-1-yl)acetamide] | > 100000 nM |  | 
